Experimental data taken from US9248119B2, “Modified release dosage forms of xanthine oxidoreductase inhibitor or xanthine oxidase inhibitors” (Takeda Pharmaceuticals U.S.A., Inc., priority 2010, dated 2016).
Where two headings read alike, the source gives them in different places.

Tests used:
xanthine oxidase [1] = biological target: T1, xanthine oxidase (Homo sapiens, UniProt P47989)
xanthine oxidase [2] = biological target: T1, xanthine oxidase; remark: listed apart in the source
albumin = biological target: T2, albumin (Homo sapiens, UniProt P02768); assay: Binding to albumin in the blood; assay type: in vitro ADME
T2 construct: from tissue; host or cells: blood / plasma

clinical = conditions: human, in vivo; for Vd/F: Vss/F
Protocol: The development of the previously described embodiments resulted from a long drug development process. […] The study was also designed to assess the pharmacokinetic and pharmacodynamic profiles of multiple daily oral doses over a range of doses and ranges, including both once-daily and twice-daily administration.
Samples were analyzed by high performance liquid chromatography.

[3] = Bioavailability of febuxostat released in various locations of the gastrointestinal tract (site of absorption study); assay type: in vivo, human; conditions: humans
Protocol: Subjects all received regimens in a crossover fashion according to a randomization schedule. Extra periods (up to 2 per subject) were added where subject dose release issues required repeating a regimen. There was a washout interval of at least 7 days between the dose in a period and the next dose in the subsequent period.
The method utilizes protein precipitation with acetonitrile of a 100-μL aliquot of plasma, with a lower limit of detection of 10.0 ng/mL.
Pharmacokinetic parameters for febuxostat were estimated using standard noncompartmental methods. Calculations were performed using the WinNonlin Pro Version 5.2 (Mountain View, Calif., USA). The descriptive statistics for pharmacokinetic parameter estimates were computed. […] The subjects who had improper capsule release were allowed to repeat up to two extra periods after their scheduled sequence had ended. For ANOVA purposes, the missing or incomplete data from the periods with improper capsule release was replaced by the data from the corresponding repeated periods using the originally planned period for that regimen.

T1 sequence (P47989 whole entry): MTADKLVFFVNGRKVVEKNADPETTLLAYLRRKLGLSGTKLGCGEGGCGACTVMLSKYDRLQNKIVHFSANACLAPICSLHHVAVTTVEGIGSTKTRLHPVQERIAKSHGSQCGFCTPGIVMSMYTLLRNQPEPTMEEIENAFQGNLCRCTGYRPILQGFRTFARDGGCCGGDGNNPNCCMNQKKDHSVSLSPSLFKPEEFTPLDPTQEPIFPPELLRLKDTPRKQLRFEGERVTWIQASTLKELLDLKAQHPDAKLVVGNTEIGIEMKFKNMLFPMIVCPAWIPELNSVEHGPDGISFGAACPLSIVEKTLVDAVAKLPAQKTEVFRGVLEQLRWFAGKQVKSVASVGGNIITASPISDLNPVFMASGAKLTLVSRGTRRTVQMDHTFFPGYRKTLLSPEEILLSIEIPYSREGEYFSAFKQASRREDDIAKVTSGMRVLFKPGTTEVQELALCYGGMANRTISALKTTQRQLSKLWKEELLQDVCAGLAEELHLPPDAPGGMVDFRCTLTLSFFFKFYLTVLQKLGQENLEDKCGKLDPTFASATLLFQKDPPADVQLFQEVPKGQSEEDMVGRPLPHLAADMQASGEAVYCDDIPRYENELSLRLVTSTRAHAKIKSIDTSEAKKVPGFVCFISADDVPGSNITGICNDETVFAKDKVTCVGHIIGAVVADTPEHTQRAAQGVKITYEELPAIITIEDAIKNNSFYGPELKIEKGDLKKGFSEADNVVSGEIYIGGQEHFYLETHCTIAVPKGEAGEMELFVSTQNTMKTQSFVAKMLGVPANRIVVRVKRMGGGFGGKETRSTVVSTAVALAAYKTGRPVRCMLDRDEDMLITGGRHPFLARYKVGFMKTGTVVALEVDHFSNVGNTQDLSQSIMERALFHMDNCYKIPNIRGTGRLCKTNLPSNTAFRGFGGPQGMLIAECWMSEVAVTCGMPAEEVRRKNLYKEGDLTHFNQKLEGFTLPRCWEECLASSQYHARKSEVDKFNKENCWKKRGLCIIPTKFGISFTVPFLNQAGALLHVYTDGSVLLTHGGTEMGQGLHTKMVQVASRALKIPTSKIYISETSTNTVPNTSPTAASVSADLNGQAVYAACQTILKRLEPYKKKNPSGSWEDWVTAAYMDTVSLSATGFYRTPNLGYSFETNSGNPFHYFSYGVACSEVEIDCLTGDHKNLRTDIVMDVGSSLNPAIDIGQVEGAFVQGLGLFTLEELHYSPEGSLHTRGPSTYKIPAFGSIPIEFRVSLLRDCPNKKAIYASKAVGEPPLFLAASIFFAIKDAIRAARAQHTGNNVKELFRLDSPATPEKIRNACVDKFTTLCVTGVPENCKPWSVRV
T2 sequence (P02768 25-609): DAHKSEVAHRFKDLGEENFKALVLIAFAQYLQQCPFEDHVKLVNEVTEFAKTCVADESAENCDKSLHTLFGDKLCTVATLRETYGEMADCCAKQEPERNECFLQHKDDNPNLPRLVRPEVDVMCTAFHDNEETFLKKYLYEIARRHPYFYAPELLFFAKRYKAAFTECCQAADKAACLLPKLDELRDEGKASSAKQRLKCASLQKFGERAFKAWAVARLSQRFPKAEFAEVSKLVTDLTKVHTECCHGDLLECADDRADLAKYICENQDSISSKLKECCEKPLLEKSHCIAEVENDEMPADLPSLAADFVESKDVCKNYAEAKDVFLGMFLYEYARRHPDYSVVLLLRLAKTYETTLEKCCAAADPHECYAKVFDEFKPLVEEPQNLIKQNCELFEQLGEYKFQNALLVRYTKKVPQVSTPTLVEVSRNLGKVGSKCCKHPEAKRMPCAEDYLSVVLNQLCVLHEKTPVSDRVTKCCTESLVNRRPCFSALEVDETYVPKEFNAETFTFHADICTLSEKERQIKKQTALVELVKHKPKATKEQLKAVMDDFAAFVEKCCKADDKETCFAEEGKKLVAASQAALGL

SMILES: Cc1nc(-c2ccc(OCC(C)C)c(C#N)c2)sc1C(=O)O [Febuxostat, 2-[3-cyano-4-(2-methylpropoxy)phenyl]-4-methylthiazole-5-carboxylic acid]
- Percentage Inhibition of xanthine oxidase (xanthine oxidase [1]; IR 10 mg QD, 8 hours post dose): 43.6%
- Percentage Inhibition of xanthine oxidase (xanthine oxidase [1]; IR 10 mg QD, 12 hours post dose): 27.3%
- Percentage Inhibition of xanthine oxidase (xanthine oxidase [1]; IR 10 mg QD, 16 hours post dose): 0%
- Percentage Inhibition of xanthine oxidase (xanthine oxidase [1]; IR 10 mg QD, 24 hours post dose): 0%
- Percentage Inhibition of xanthine oxidase (xanthine oxidase [1]; IR 20 mg QD, 8 hours post dose): 55.9%
- Percentage Inhibition of xanthine oxidase (xanthine oxidase [1]; IR 20 mg QD, 12 hours post dose): 54.0%
- Percentage Inhibition of xanthine oxidase (xanthine oxidase [1]; IR 20 mg QD, 16 hours post dose): 42.8%
- Percentage Inhibition of xanthine oxidase (xanthine oxidase [1]; IR 20 mg QD, 24 hours post dose): 0%
- Percentage Inhibition of xanthine oxidase (xanthine oxidase [1]; IR 30 mg QD, 8 hours post dose): 62.3%
- Percentage Inhibition of xanthine oxidase (xanthine oxidase [1]; IR 30 mg QD, 12 hours post dose): 52.5%
- Percentage Inhibition of xanthine oxidase (xanthine oxidase [1]; IR 30 mg QD, 16 hours post dose): 37.1%
- Percentage Inhibition of xanthine oxidase (xanthine oxidase [1]; IR 30 mg QD, 24 hours post dose): 35.9%
- Percentage Inhibition of xanthine oxidase (xanthine oxidase [1]; IR 40 mg QD, 8 hours post dose): 69.8%
- Percentage Inhibition of xanthine oxidase (xanthine oxidase [1]; IR 40 mg QD, 12 hours post dose): 55.9%
- Percentage Inhibition of xanthine oxidase (xanthine oxidase [1]; IR 40 mg QD, 16 hours post dose): 43.3%
- Percentage Inhibition of xanthine oxidase (xanthine oxidase [1]; IR 40 mg QD, 24 hours post dose): 36.2%
- Percentage Inhibition of xanthine oxidase (xanthine oxidase [1]; IR 50 mg QD, 8 hours post dose): 77.9%
- Percentage Inhibition of xanthine oxidase (xanthine oxidase [1]; IR 50 mg QD, 12 hours post dose): 64.9%
- Percentage Inhibition of xanthine oxidase (xanthine oxidase [1]; IR 50 mg QD, 16 hours post dose): 49.1%
- Percentage Inhibition of xanthine oxidase (xanthine oxidase [1]; IR 50 mg QD, 24 hours post dose): 38.5%
- Percentage Inhibition of xanthine oxidase (xanthine oxidase [1]; IR 70 mg QD, 8 hours post dose): 81.2%
- Percentage Inhibition of xanthine oxidase (xanthine oxidase [1]; IR 70 mg QD, 12 hours post dose): 66.3%
- Percentage Inhibition of xanthine oxidase (xanthine oxidase [1]; IR 70 mg QD, 16 hours post dose): 56.0%
- Percentage Inhibition of xanthine oxidase (xanthine oxidase [1]; IR 70 mg QD, 24 hours post dose): 35.3%
- Percentage Inhibition of xanthine oxidase (xanthine oxidase [1]; IR 90 mg QD, 8 hours post dose): 85.6%
- Percentage Inhibition of xanthine oxidase (xanthine oxidase [1]; IR 90 mg QD, 12 hours post dose): 77.7%
- Percentage Inhibition of xanthine oxidase (xanthine oxidase [1]; IR 90 mg QD, 16 hours post dose): 68.1%
- Percentage Inhibition of xanthine oxidase (xanthine oxidase [1]; IR 90 mg QD, 24 hours post dose): 50.3%
- Percentage Inhibition of xanthine oxidase (xanthine oxidase [1]; IR 120 mg QD, 8 hours post dose): 89.0%
- Percentage Inhibition of xanthine oxidase (xanthine oxidase [1]; IR 120 mg QD, 12 hours post dose): 82.6%
- Percentage Inhibition of xanthine oxidase (xanthine oxidase [1]; IR 120 mg QD, 16 hours post dose): 75.8%
- Percentage Inhibition of xanthine oxidase (xanthine oxidase [1]; IR 120 mg QD, 24 hours post dose): 60.5%
- time for which at least 80% inhibition of xanthine oxidase is provided (xanthine oxidase [1]; IR 120 mg, Table 2): ≤ 16 h
- Percentage Inhibition of xanthine oxidase (xanthine oxidase [1]; IR 160 mg QD, 8 hours post dose): 93.9%
- Percentage Inhibition of xanthine oxidase (xanthine oxidase [1]; IR 160 mg QD, 12 hours post dose): 90.9%
- Percentage Inhibition of xanthine oxidase (xanthine oxidase [1]; IR 160 mg QD, 16 hours post dose): 81.4%
- Percentage Inhibition of xanthine oxidase (xanthine oxidase [1]; IR 160 mg QD, 24 hours post dose): 67.6%
- Percentage Inhibition of xanthine oxidase (xanthine oxidase [1]; IR 180 mg QD, 8 hours post dose): 94.7%
- Percentage Inhibition of xanthine oxidase (xanthine oxidase [1]; IR 180 mg QD, 12 hours post dose): 91.7%
- Percentage Inhibition of xanthine oxidase (xanthine oxidase [1]; IR 180 mg QD, 16 hours post dose): 81.5%
- Percentage Inhibition of xanthine oxidase (xanthine oxidase [1]; IR 180 mg QD, 24 hours post dose): 68.4%
- Percentage Inhibition of xanthine oxidase (xanthine oxidase [1]; IR 240 mg QD, 8 hours post dose): 95.7%
- Percentage Inhibition of xanthine oxidase (xanthine oxidase [1]; IR 240 mg QD, 12 hours post dose): 91.4%
- Percentage Inhibition of xanthine oxidase (xanthine oxidase [1]; IR 240 mg QD, 16 hours post dose): 86.5%
- Percentage Inhibition of xanthine oxidase (xanthine oxidase [1]; IR 240 mg QD, 24 hours post dose): 72.4%
- time with at least 80% inhibition of xanthine oxidase (xanthine oxidase [2]; 120 mg immediate release dosage forms, other studies): ~14 h
- time with at least 80% inhibition of xanthine oxidase (xanthine oxidase [2]; 240 mg immediate release dosage forms, further studies): about 22 hours
- bound to albumin in the blood (albumin): ~99.3%
- Vd (clinical): ~0.7 L/kg
- half-life (clinical): ~6 h
- Cmax (clinical; 10 mg): 399.5 ng/mL
- Tmax (clinical; 10 mg): 0.70 h
- Vss/F (clinical; 10 mg): 42.7 L
- AUC (clinical; 10 mg, AUC (AUC24)): 950 ng·h/mL
- AUC(0-inf) (clinical; 10 mg): 727 ng·h/mL
- Cmax (clinical; 10 mg, Cmax): 336 ng/mL
- Vd/F (clinical; 10 mg): 38.2 L
- Tmax (clinical; 10 mg, tmax): 0.99 h
- Cmax (clinical; 20 mg): 934.2 ng/mL
- Vss/F (clinical; 20 mg): 33.3 L
- AUC (clinical; 20 mg, AUC (AUC24)): 2110 ng·h/mL
- AUC(0-inf) (clinical; 20 mg): 2180 ng·h/mL
- Cmax (clinical; 20 mg, Cmax): 1110 ng/mL
- Vd/F (clinical; 20 mg): 29.2 L
- Tmax (clinical; 20 mg, tmax): 1.06 h
- AUC (AUC12) (clinical; 30 mg): 3308.3 ng·h/mL
- AUC (AUC∞) (clinical; 30 mg): 2816.9 ng·h/mL
- AUC (clinical; 30 mg, AUC (AUC12)): 2910 ng·h/mL
- AUC (clinical; 30 mg, AUC (AUC24)): 2570 ng·h/mL
- AUC(0-inf) (clinical; 30 mg): 2550 ng·h/mL
- Cmax (clinical; 30 mg, Cmax): 1120 ng/mL
- Cmax (clinical; 40 mg): 1822.1 ng/mL
- Vss/F (clinical; 40 mg): 49.5 L
- AUC (clinical; 40 mg, AUC (AUC24)): 4300 ng·h/mL
- AUC(0-inf) (clinical; 40 mg): 3980 ng·h/mL
- Cmax (clinical; 40 mg, Cmax): 1530 ng/mL
- Vd/F (clinical; 40 mg): 48.7 L
- Tmax (clinical; 40 mg, tmax): 1.44 h
- Cmax (clinical; 50 mg): 1791.7 ng/mL
- Vss/F (clinical; 50 mg): 59.1 L
- AUC (clinical; 50 mg, AUC (AUC24)): 4380 ng·h/mL
- AUC(0-inf) (clinical; 50 mg): 4410 ng·h/mL
- Cmax (clinical; 50 mg, Cmax): 1970 ng/mL
- Vd/F (clinical; 50 mg): 43.2 L
- Tmax (clinical; 50 mg, tmax): 0.78 h
- Cmax (clinical; 70 mg): 2689.9 ng/mL
- Vss/F (clinical; 70 mg): 54.1 L
- AUC (clinical; 70 mg, AUC (AUC24)): 6950 ng·h/mL
- AUC(0-inf) (clinical; 70 mg): 6930 ng·h/mL
- Cmax (clinical; 70 mg, Cmax): 3080 ng/mL
- Vd/F (clinical; 70 mg): 41.6 L
- Tmax (clinical; 70 mg, tmax): 1 h
- Cmax (clinical; 90 mg): 4058.9 ng/mL
- Vss/F (clinical; 90 mg): 63.7 L
- AUC (clinical; 90 mg, AUC (AUC24)): 9650 ng·h/mL
- AUC(0-inf) (clinical; 90 mg): 9090 ng·h/mL
- Cmax (clinical; 90 mg, Cmax): 3480 ng/mL
- Vd/F (clinical; 90 mg): 56.7 L
- Tmax (clinical; 90 mg, tmax): 0.95 h
- Cmax (clinical; 120 mg): 5307.6 ng/mL
- Vss/F (clinical; 120 mg): 55.1 L
- AUC (clinical; 120 mg, AUC (AUC24)): 12000 ng·h/mL
- AUC(0-inf) (clinical; 120 mg): 11300 ng·h/mL
- Cmax (clinical; 120 mg, Cmax): 4470 ng/mL
- Vd/F (clinical; 120 mg): 57.8 L
- Tmax (clinical; 120 mg, tmax): 1 h
- Cmax (clinical; 160 mg): 8771.1 ng/mL
- Vss/F (clinical; 160 mg): 36.1 L
- AUC (clinical; 160 mg, AUC (AUC24)): 22300 ng·h/mL
- AUC(0-inf) (clinical; 160 mg): 20700 ng·h/mL
- Cmax (clinical; 160 mg, Cmax): 7300 ng/mL
- Vd/F (clinical; 160 mg): 40.7 L
- Tmax (clinical; 160 mg, tmax): 0.75 h
- Cmax (clinical; 180 mg): 8048.8 ng/mL
- Tmax (clinical; 180 mg): 1.00 h
- Vss/F (clinical; 180 mg): 45.6 L
- AUC (clinical; 180 mg, AUC (AUC24)): 24000 ng·h/mL
- AUC(0-inf) (clinical; 180 mg): 25600 ng·h/mL
- Cmax (clinical; 180 mg, Cmax): 8400 ng/mL
- Vd/F (clinical; 180 mg): 54.6 L
- Tmax (clinical; 180 mg, tmax): 1.07 h
- Cmax (clinical; 240 mg): 11263 ng/mL
- Vss/F (clinical; 240 mg): 31.3 L
- AUC (clinical; 240 mg, AUC (AUC24)): 35000 ng·h/mL
- AUC(0-inf) (clinical; 240 mg): 28300 ng·h/mL
- Cmax (clinical; 240 mg, Cmax): 8390 ng/mL
- Vd/F (clinical; 240 mg): 54.6 L
- Tmax (clinical; 240 mg, tmax): 1.06 h
- oral clearance from the plasma (clinical; po): 7.3 to 15.1 L/h
- Tmax (clinical; po, tmax): ~1 h
- absorption in the colon compared to immediate release, proximal intestine and distal intestine [3]: approximately 40%
